Here are results for one compound from patent EP1996603B1, “LIPID A ANTAGONISTS WITH ANTI-SEPTIC SHOCK, ANTI-INFLAMMATORY, ANTI-ISCHEMIA AND ANALGESIC ACTIVITY” (Università Degli Studi Di Milano - Bicocca, priority 2006, dated 2007).

This assay concerns the target T1, TLR9 (Homo sapiens, UniProt Q9NR96).
T1 construct: host or cells: HEK-293 (HEK-293-hTLR9A)
T1 sequence (Q9NR96 26-1032): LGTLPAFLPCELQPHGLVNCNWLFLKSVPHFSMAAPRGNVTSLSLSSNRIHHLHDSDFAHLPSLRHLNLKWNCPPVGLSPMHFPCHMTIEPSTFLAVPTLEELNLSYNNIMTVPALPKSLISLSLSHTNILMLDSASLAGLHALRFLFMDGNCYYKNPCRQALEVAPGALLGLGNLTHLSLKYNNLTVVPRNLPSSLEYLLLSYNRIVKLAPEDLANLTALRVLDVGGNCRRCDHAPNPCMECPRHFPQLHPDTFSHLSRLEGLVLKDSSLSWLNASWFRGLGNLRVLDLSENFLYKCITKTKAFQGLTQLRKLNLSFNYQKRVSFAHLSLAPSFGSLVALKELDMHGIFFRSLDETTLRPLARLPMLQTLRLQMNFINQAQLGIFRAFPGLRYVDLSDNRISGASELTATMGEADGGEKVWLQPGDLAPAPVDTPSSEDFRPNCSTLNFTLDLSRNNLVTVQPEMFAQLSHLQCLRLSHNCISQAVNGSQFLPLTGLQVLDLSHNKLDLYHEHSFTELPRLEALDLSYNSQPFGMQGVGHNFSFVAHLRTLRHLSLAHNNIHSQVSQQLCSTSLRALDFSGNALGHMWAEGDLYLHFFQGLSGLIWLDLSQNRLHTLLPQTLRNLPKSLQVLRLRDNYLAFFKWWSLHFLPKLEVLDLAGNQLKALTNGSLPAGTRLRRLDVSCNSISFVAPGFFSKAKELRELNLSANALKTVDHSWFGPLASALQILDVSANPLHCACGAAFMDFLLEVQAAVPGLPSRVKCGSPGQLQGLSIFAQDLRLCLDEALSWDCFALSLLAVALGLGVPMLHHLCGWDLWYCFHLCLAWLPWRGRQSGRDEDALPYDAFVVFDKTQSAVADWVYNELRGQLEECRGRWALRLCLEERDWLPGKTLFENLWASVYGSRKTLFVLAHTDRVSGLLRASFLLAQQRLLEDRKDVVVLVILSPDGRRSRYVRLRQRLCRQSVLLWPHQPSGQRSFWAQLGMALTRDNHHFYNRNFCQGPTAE
In words: NF-kB activation in HEK-293 cells transfected with TLR9, stimulated with CpG. To be noted: TLR9-transfected HEK 293; CpG (0.5 µM); maximal dose of 50 µM; measured 2 h later. It counts as cell-based. As to the method:
• Figure 1. Antagonistic activity of compounds Ia, Ic and Id on lipid A-stimulated cytokine production in BMDC, BMØ and D1 cells. TNFα production was measured in the supernatants 24 h later. From the right: lipid A (0.5µM), cells treated with lipid A alone; DMSO: cells incubated in the presence of complete medium plus DMSO; inhibitor 50 µM, cells treated only with monosaccharides Ia, Ic and Id; other columns, lipid A + compounds […] at increasing doses. The data represent means and standard deviations of triplicate wells. This is a representative of three independent experiments. *, p < 0.05; **, p < 0.01; ***, p< 0.001. • Figure 2. TLR-4 selectivity of monosaccharide Id. […] IL-1β was measured in the supernatants by ELISA. […] Lower panels, TNFα production measured by ELISA 24 h after stimulation with CpG (selective for TLR-9) or PAM3Cys-SK4 (selective for TLR-2) in the presence of compound Id. […] The cells were then analyzed by FACS for the presence of annexin V and propidium iodide (PI) double positive cells. […] NF-kB activation was evaluated in the nuclear extract 2 h later and expressed as optical density (OD) at 450 nm. […] Effect of different doses of compound Id on carrageenan induced edema in mice measured 4h after the exposure and expressed as difference between the paw volume of treated paw versus the contralateral paw. […]

As for `CCCCCCCCCCCCCCO[C@H]1[C@@H](OC)O[C@H](C[N+](C)(C)C2CCCC2)[C@@H](O)[C@@H]1OCCCCCCCCCCCCCC` [Compound Id, methyl 6-deoxy-6-N,N',N"-dimethylcyclopentylammonium-2,3-di-O-tetradecyl-α-D-glucopyranoside], the NF-kB activation entry is “inactive”.
